From patent publication US11648220B2, “Methods for the treatment of myeloid derived suppressor cells related disorders” (The Rockefeller University, priority 2016, dated 2023)

Legend:
B16F10 melanoma [1] = assay: B16F10 tumors, compound 705 plus adoptive transfer of Pmel CD8+ T-cells (survival); assay type: in vivo, mice; conditions: B16F10, diet 50 mg/kg/day plus 2×10^6 Pmel CD8+ T-cells
Procedure: (§1) All mouse studies were conducted according to a protocol approved by the Institutional Animal Care and Use Committee at the Rockefeller University. C57BL/6 (WT); and Pmel (B6.Cg-Thy1^a/Cy Tg(TcraTcrb)8Rest/J mice were obtained from the Jackson Laboratory. To determine the effect of LXR agonists on in vivo primary tumor growth, mice were injected with 5×10^4 B16F10 melanoma cells. For all tumor growth experiments, cells (suspension in […] of PBS) were mixed 1:1 with matrigel (356231, BD Biosciences, Bedford, Mass.) and subcutaneously injected into the lower flank of 6-8 week-old sex-matched mice. Following formation of tumors, mice were assigned to the following treatment groups as described below. All drug-formulated diets were prepared by Research Diets. After the indicated number of days, either peripheral blood or tumors were isolated to obtain tumor-infiltrating lymphocytes for flow-cytometry analysis as described below.
After tumor cell injection, tumor volumes were measured every two days. Upon tumors measuring 90-100 mm^3 in volume (day 6-7), mice were randomly assigned to a control diet treatment or a COMPOUND 705-supplemented diet (50 mg/kg/day; Rgenix).
The following day, 2×10^6 CD8+ T-cells from Pmel mice were adoptively transferred via retro-orbital injection into both control and COMPOUND 705 treated mice. […]

MDSCs = assay: MDSC abundance assay; assay type: cell-based, mice; conditions: 1 μM, 3 hours
Procedure: MDSCs were isolated from the spleens of tumor-bearing wild-type or ApoE−/− mice, as indicated, using the MACS Myeloid-Derived Suppressor Cell Isolation Kit (Miltenyi Biotech) according to manufacturer's protocol. MDSCs were then incubated in RPMI (Sigma) supplemented with 10% FBS and either COMPOUND 705 (dissolved in 2% DMSO at the indicated concentration) or control (2% DMSO) and subsequently incubated at 37° C. for the indicated time. Abundance was assessed by quantifying the percent of live cells using propidium Iodide staining. […]

B16F10 melanoma [2] = assay: B16F10 tumors, compound 705 plus anti-PD-1 antibody; assay type: in vivo, mice; conditions: B16F10, diet 50 mg/kg/day plus anti-PD-1 antibody 10 mg/kg I.P. every 3 days
Procedure: All mouse studies were conducted according to a protocol approved by the Institutional Animal Care and Use Committee at the Rockefeller University. C57BL/6 mice were obtained from the Jackson Laboratory. For experiments testing the effect of LXR agonists on tumor growth, mice were assigned to a control chow or a chow supplemented with compound 682 (Sigma-Aldrich) or compound 705 (Rgenix, Inc.) at 50, or 100 mg/kg/day, as indicated. For combination drug regimens, mice were fed a compound 705-supplemented diet and co-treated with anti-PD-1 antibody (clone RMP1-14 BioXcell), 10 mg/kg by i.p. injection every 3 days for 3 total doses starting on the day of tumor injection. All drug-formulated diets were prepared by Research Diets. […]
(§2) At the indicated day, tumors were isolated from euthanized mice and minced into small (˜1 mm^2) pieces with a scalpel and then enzymatically dissociated. […] After staining, cells were subsequently analyzed by flow cytometry using an LSRII flow cytometer (BD Biosciences). Data was analyzed using FlowJo software. […]
After tumor cell injection, animals were treated with anti-PD-1 antibody at a dose of 10 mg/kg (clone RMP1-14; BioXcell), by intraperitoneal (I.P.) injection every 3 days for 3 total doses starting on the day of tumor injection. […] Tumor dimensions were measured using digital calipers, and tumor volume was calculated as (small diameter)^2×(large diameter)/2. […]

[3] = tested on: myeloid-derived suppressor cells (MDSCs) in B16F10 melanoma; assay: tumor-infiltrating MDSCs in B16F10 tumor-bearing mice (flow cytometry, Gr1 immunohistochemistry); assay type: in vivo
Procedure: All mouse studies were conducted according to a protocol approved by the Institutional Animal Care and Use Committee at the Rockefeller University. C57BL/6 mice were obtained from the Jackson Laboratory. For experiments testing the effect of LXR agonists on tumor growth, mice were assigned to a control chow or a chow supplemented with compound 682 (Sigma-Aldrich) or compound 705 (Rgenix, Inc.) at 50, or 100 mg/kg/day, as indicated. For combination drug regimens, mice were fed a compound 705-supplemented diet and co-treated with anti-PD-1 antibody (clone RMP1-14 BioXcell), 10 mg/kg by i.p. injection every 3 days for 3 total doses starting on the day of tumor injection. All drug-formulated diets were prepared by Research Diets.
All mouse studies were conducted according to a protocol approved by the Institutional Animal Care and Use Committee at the Rockefeller University. […]
as §2
At the indicated day, blood was drawn from mice and treated with RBC Lysis Buffer (Sigma) followed by filtration through a […] filter (Corning Inc) to obtain a single cell suspension of lymphocytes. […] After staining, cells were subsequently analyzed by flow cytometry using an LSRII flow cytometer (BD Biosciences). Data was analyzed using FlowJo software.
For MDSC quantification studies, frozen tumor sections (no fixation) were stained with an antibody against Gr1 (1:1000; BioXcell). […]

[4] = tested on: CD8+ T-cells co-cultured with MDSCs; assay: T-cell suppression assay; assay type: cell-based; conditions: 24 hours co-culture with MDSCs from treated tumor-bearing mice
Procedure: CD8+ cells were purified from single cell suspensions from spleens of mice using the MACS CD8+ T-cell isolation kit (Miltenyi Biotech) according to manufacturer's protocol. Cells were then labeled with cell tracker reagent (BV). The labeled CD8+ T cells were plated on 96-well plates coated with 1 mg/ml anti-CD3 and anti-CD28 beads (Dynabeads® Mouse T-Activator CD3/CD28 for T-Cell Expansion and Activation; Gibco). Recombinant IL-2 (Gibco) was then added to the wells according to manufacturer's protocol. MDSC were then isolated using the MACS Myeloid-Derived Suppressor Cell Isolation Kit (Miltenyi Biotech) according to manufacturer's protocol and subsequently added in the indicated MDSC:T-cell ratios. Cells were incubated at 37° C. for 24-36 hours. T-cell activation was measured by flow cytometry by assessing the percent of T-cells positive for IFNγ staining with diluted BV dye.

LXRβ = target: T1, LXRβ (Homo sapiens, UniProt P55055); assay: ligand sensing assay (LiSA), LXRβ; assay type: biochemical
T1 sequence (P55055 1-460): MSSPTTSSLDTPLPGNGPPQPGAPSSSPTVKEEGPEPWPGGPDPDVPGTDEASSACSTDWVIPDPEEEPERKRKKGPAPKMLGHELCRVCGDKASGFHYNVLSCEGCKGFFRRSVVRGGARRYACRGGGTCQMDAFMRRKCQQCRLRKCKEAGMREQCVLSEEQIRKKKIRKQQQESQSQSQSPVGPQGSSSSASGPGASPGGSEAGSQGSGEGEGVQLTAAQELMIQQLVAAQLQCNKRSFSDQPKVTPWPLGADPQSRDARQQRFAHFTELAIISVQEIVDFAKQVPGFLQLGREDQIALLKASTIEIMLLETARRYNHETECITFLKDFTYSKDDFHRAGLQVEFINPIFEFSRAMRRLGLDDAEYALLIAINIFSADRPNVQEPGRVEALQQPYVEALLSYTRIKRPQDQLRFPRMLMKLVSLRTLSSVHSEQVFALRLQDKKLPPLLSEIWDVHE
Text: As used herein, reference to the activity of an LXR agonist at LXRα and LXRβ refer to the activity as measured using the ligand sensing assay (LiSA) described in Spencer et al. Journal of Medicinal Chemistry 2001, 44, 886-897, incorporated herein by reference. […] For example, the methods of the invention can be performed using an LXRβ agonist having activity for LXRβ that is at least 3-fold greater than the activity of the agonist for LXRα, or having activity for LXRβ that is at least 10-fold greater than the activity of the agonist for LXRα, or having activity for LXRβ that is at least 100-fold greater than the activity of said agonist for LXRα, or having activity for LXRβ that is at least within 3-fold of the activity of the agonist for LXRα. The term “greater activity” in the LiSA assay refers to a lower EC50.

[5] = tested on: activated CD8+ T-cells in B16F10 melanoma; assay: tumor-infiltrating activated CD8+ T-cells in B16F10 tumor-bearing mice (flow cytometry); assay type: in vivo; conditions: supplemented diet 100 mg/kg/day, tumors isolated day 12-14
Procedure: as §1, with “After the indicated number of days, either peripheral blood or tumors were isolated to obtain tumor-infiltrating lymphocytes for flow-cytometry analysis as described below.” left out
as §2
After tumor cell injection, animals were palpated every two days for tumor formation. […] Tumor dimensions were measured using digital calipers, and tumor volume was calculated as (small diameter)^2×(large diameter)/2. […]

LXRα = target: T2, LXRα (Homo sapiens, UniProt Q13133); conditions: cited from earlier work
T2 sequence (Q13133 1-447): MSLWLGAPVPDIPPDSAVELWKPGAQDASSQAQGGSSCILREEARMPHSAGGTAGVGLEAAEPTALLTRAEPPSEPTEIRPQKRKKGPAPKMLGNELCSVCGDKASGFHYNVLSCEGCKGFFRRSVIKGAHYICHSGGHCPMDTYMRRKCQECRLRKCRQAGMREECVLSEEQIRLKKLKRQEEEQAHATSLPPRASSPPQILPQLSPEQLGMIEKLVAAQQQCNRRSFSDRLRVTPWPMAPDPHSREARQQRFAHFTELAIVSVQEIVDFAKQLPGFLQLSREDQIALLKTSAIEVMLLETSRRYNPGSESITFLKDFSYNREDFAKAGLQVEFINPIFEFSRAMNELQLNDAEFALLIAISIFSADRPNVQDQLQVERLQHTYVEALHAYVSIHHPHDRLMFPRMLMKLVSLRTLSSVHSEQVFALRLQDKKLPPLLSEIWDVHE

[6] = daily I.P. injection 2 mg, day 12-14

With `CC(CCOc1cccc(CC(=O)O)c1)N(Cc1cccc(C(F)(F)F)c1Cl)CC(c1ccccc1)c1ccccc1` (stereo not shown) [Compound 705] the “anti-tumor activity of adoptively transferred melanoma-targeting CD8+ T-cells” value (B16F10 melanoma [1]) was “enhances the anti-tumor activity”, the “abundance of MDSCs in vitro” value (MDSCs) was “reduces abundance of MDSCs in vitro” and the “anti-tumor T-cell response induced with anti-PD-1 antibody therapy” value (B16F10 melanoma [2]) was “enhances the anti-tumor T-cell response”. For the same compound, the “number of granulocytic MDSCs (G-MDSC)” value [3, 6] was “reduces the number”, the “number of monocytic MDSCs (M-MDSC)” value [3, 6] was “reduces the number” and the “MDSC-mediated suppression of CD8+ T-cells” value [4] was “reverses MDSC-mediated suppression of CD8+ T-cells”.

For `O=C(O)Cc1cccc(OCCCN(Cc2cccc(C(F)(F)F)c2Cl)CC(c2ccccc2)c2ccccc2)c1` [Compound 682], the “fold greater activity for LXRβ compared to LXRα” value (LXRβ) was “approximately 6 fold”, the “number of tumor-infiltrating myeloid-derived suppressor cells (MDSCs)” value ([3]; supplemented diet 100 mg/kg/day, tumors isolated day 12-14) was “reduces the number of tumor-infiltrating myeloid-derived suppressor cells” and the “number of tumor-infiltrating activated CD8+ T-cells” value [5] was “increases the number of tumor-infiltrating activated CD8+ T-cells”.

In the case of `CC(C)(O)c1cn(-c2ccc(-c3cccc(S(C)(=O)=O)c3)cc2)c(C(C)(C)c2ccccc2Cl)n1` [Compound 718], the EC50 (LXRα) is listed as 101 to 1000 nM.
